# According to BindingDB's records for doi:10.1124/mol.64.1.143 (Abbott Laboratories, 2003):
# Several values for one entry are separate records, joined by “and”; a condition that tells them apart may be missing. Identical values can stand only once.
# Target: T1, Calcium-activated potassium channel subunit beta (Sus scrofa, UniProt C0KY85)
# T1 sequence (C0KY85 whole entry): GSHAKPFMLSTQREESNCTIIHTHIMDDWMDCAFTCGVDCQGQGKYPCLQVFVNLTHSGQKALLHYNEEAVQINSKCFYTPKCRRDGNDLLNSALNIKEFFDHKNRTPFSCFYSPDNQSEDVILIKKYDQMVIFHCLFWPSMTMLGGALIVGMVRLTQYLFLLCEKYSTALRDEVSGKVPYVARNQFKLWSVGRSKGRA
row,Ki,SMILES
1,41.3 nM and 16 nM,CCOc1ccccc1N=C(C[N+](=O)[O-])NC(C)C(C)(C)C (stereo not drawn) [CAS_3038059]
2,251 nM and 104 nM,CC(N/C(=N\C#N)Nc1ccncc1)C(C)(C)C (stereo not drawn) [NSC_4826]
3,630 nM and 451 nM,C[C@](O)(C(=O)Nc1ccc(C(=O)c2ccccc2)cc1)C(F)(F)F [ZD-6169]

# Continued, compound first:
row,SMILES,Ki
1,N#Cc1cccc(C2C3=C(CCCC3=O)N=C3CCCC(=O)C32)c1 (stereo not drawn) [zm244085],2770 nM and 671 nM
2,CCC(C)(C)NC(=NC#N)Nc1cccnc1 [NSC_43345],20.6 nM and 10.5 nM
3,O=C1COCC2=NC3=C([C@H](c4ccc(F)c(I)c4)C12)S(=O)(=O)CC3 (stereo partly drawn) [A-312110],4.9 nM
4,CC1(C)Oc2ccc(C#N)cc2C(N2CCCC2=O)C1O (stereo not drawn) [NSC_93504],542 nM and 157 nM
5,CC1=NS(=O)(=O)c2cc(Cl)ccc2N1 [NSC_3019],> 10000 nM
